From patent US20060263802A1 (priority 2003, published 2006)

Experiments:
Assay type in all cases: binding
[1] = tested on: human monoclonal antibody CR57
[2] = tested on: human monoclonal antibody CRJB
[3] = tested on: human monoclonal antibody CRJA
[4] = tested on: human monoclonal antibody CRJA; remark: listed apart in the source
[5] = tested on: human monoclonal antibody CR57; remark: listed apart in the source
[6] = tested on: human monoclonal antibody CRJB; remark: listed apart in the source

Row | Sequence | Binding of CR57 (10 μg/ml) to looped/cyclic peptide (PEPSCAN-ELISA signal) [1] | Binding of CRJB (10 μg/ml) to looped/cyclic peptide (PEPSCAN-ELISA signal) [2] | Binding of CRJA (10 μg/ml) to looped/cyclic peptide (PEPSCAN-ELISA signal) [3] | Binding of CRJA to linear peptide (PEPSCAN-ELISA signal) [4] | Binding of CR57 to linear peptide (PEPSCAN-ELISA signal) [5] | Binding of CRJB to linear peptide (PEPSCAN-ELISA signal) [6] | Binding of CR57 (10 μg/ml) to looped/cyclic peptide (PEPSCAN-ELISA) [1] | Binding of CRJB (10 μg/ml) to looped/cyclic peptide (PEPSCAN-ELISA) [2] | Binding of CRJA (10 μg/ml) to looped/cyclic peptide (PEPSCAN-ELISA) [3] | binding of antibody CR57 to linear peptide (PEPSCAN OD) [5] | strength of binding of CR57 (OD value compared with the other peptides / twice the average value) [5]
1 | PIYTILDKLGPWSPI | 58 | 77 | 78 | 143 | 36 | 89 |  |  |  |  | 
2 | DPRYEESLHNPYPDY | 76 | 65 | 91 | 92 | 57 | 110 |  |  |  |  | 
3 | CHPHVNGVFFNGIIL |  |  |  | 94 | 97 | 150 | 113 | 101 | 105 |  | 
4 | IHHLSCPNNLVVEDE | 46 | 71 | 76 | 79 | 37 | 85 |  |  |  |  | 
5 | QTSNETKWCPPDQLV |  |  |  | 90 | 92 | 120 | 118 | 62 | 106 |  | 
6 | TFKRKHFRPTPDACR | 112 | 99 | 105 | 97 | 96 | 111 |  |  |  |  | 
7 | DLDPYDRSLHSRVFP | 90 | 68 | 92 | 107 | 111 | 152 |  |  |  |  | 
8 | SKGSETCGFVDERGL |  |  |  | 104 | 92 | 102 | 104 | 77 | 99 |  | 
9 | RYEESLHNPYPDYRW | 98 | 71 | 91 | 96 | 69 | 112 |  |  |  |  | 
10 | GLYKSLKGACKLKLC |  |  |  | 91 | 94 | 129 | 86 | 97 | 100 |  | 
11 | VTTTFKRKHFRPTPD | 101 | 83 | 89 | 77 | 79 | 105 |  |  |  |  | 
12 | VNGVFFNGIILGPDG |  |  |  | 94 | 68 | 116 | 90 | 96 | 78 |  | 
13 | KLGPWSPIDIHHLSC | 97 | 65 | 85 | 72 | 72 | 105 |  |  |  |  | 
14 | KLKLCGVLGLRLMDG |  |  |  | 101 | 273 | 120 | 13 | 63 | 79 | bound | 
15 | GKAYTIFNKTLMEAD |  |  |  | 100 | 76 | 127 | 114 | 100 | 107 |  | 
16 | FNGIILGPDGNVLIP |  |  |  | 99 | 61 | 139 | 94 | 88 | 106 |  | 
17 | ACKLKLCGVLGLRLM |  |  |  | 79 | 148 | 117 | 111 | 92 | 71 | bound | lower than twice the average value
18 | ILGPDGNVLIPEMQS |  |  |  | 90 | 125 | 134 | 143 | 92 | 100 |  | 
19 | SNETKWCPPDQLVNL |  |  |  | 94 | 99 | 129 | 129 | 93 | 102 |  | 
20 | PSKGCLRVGGRCHPH |  |  |  | 78 | 69 | 138 | 92 | 99 | 71 |  | 
21 | SRVFPSGKCSGVAVS | 112 | 89 | 92 | 107 | 100 | 125 |  |  |  |  | 
22 | RVFPSGKCSGVAVSS | 75 | 89 | 43 | 58 | 69 | 110 |  |  |  |  | 
23 | TNHDYTIWMPENPRL | 40 | 58 | 72 | 91 | 69 | 129 |  |  |  |  | 
